Patent US20230089267A1, “Compositions and Methods For Reducing Immune Intolerance and Treating Autoimmune Disorders” (Lapix Therapeutics, Inc., priority 2021, published 2023)
Counter-ions that a name gives are not always drawn. Each block holds one compound with its values, some of them ahead of it.

Key:
[1] = tested on: MOG35-55-induced murine EAE model; assay: MOG35-55-induced murine EAE model, Compound 2 versus Compound 8 (Example 12); format: in vivo, mice; conditions: 3 μg/mouse/day SC, after ten days of treatment
Description: Mice were immunized with 100 μg MOG35-55 emulsified with CFA and pertussis toxin, as described in Example 4. At disease onset (clinical score 1), mice were randomized into two treatment groups, and received 3 μg/mouse/day SC of either Compound 2 or Compound 8.

[2] = tested on: MOG35-55-induced murine EAE model; assay: Escalation treatment paradigm in MOG35-55-induced murine EAE model (Example 8); format: in vivo, mice
Description: Compound 2 (0.03 mg/ml) was formulated with hydroxypropyl beta cyclodextrin (HPCD) 1:80 (Compound 2:HPCD) and stored at 4° C. until use. Natalizumab, an anti-α4β1 integrin antibody is a monoclonal antibody that is approved by U.S. Food and Drug Administration (FDA) for the treatment of relapsing forms of MS. […] Natalizumab was diluted in PBS to a final concentration of 15 mg/ml before dosing. DMF is a disease-modifying therapy (DMT) recommended for the treatment of active relapsing multiple sclerosis. DMF (1 g) was dissolved in 50 ml of 4% solution of METHOCEL© to give a 20 mg/ml solution of DMF. The solution was stored at 4° C. until use.
Experimental autoimmune (allergic) encephalomyelitis (EAE) is considered to be the best non-clinical model of multiple sclerosis (MS). Over 6,000 papers have been published in scientific journals on this model. EAE is characterized by immune responses against CNS tissue and can be induced in animals by immunizing them against proteins of the CNS. In the active EAE model, mice are immunized with MOG35-55 peptide emulsified in Complete Freund's Adjuvant (CFA) by subcutaneous injection at the tail base (100 μg of […] per mouse) under anesthesia. On the day of injection (Day 0) and two days later (Day 2), mice receive an intraperitoneal injection of pertussis toxin (PT) in PBS at 200 ng/mouse/dose (0.1 mL). Symptoms typically develop in mice 9-14 days after immunization (Day 0). Daily observation and scoring of mice start on Day 7 and continue until the end of the study. Table 5 (see Example 4 above) details the expected clinical symptoms and the scoring criteria used in this study.
This study was designed to evaluate the early sustained use of Compound 2 versus DMF in a treatment escalation paradigm (sustained use cohort), and Compound 2 versus natalizumab after DMF failure (escalation cohort). All animals in the escalation cohorts received 14 doses of DMF or Compound 2, or 3 doses of natalizumab, as per group assignment.
Probability of disease control: Disease control was defined as a clinical score of less than 2.5. Animals in the different treatment groups were monitored after the 3:1:1 randomization. A score of 2.5 was recorded as an event and analyzed by survival analysis in GraphPad Prism 9. Animals not reaching a clinical score of 2.5 by day 14, the end of the treatment period, were assigned a score of zero for the survival analysis.
Efficacy of Compound 2 versus DMF in early sustained use: Animals in the DMF group that reached a score of 2.5 were randomized 1:1:1, as per FIG. 5A. Animals randomized to continue DMF treatment were given the remainder of the 14 DMF doses. Animals from the first randomization that were treated with Compound 2 after disease onset continued treatment for a total of 14 doses. After the 14th dose, treatment was stopped and clinical score and overall survival were monitored.
Efficacy of Compound 2 versus natalizumab in a treatment escalation cohort: Animals in the DMF group that reached a score of 2.5 were randomized 1:1:1, as per FIG. 5A. Animals randomized to natalizumab were dosed 100 μg/mouse IV every 3 days for 3 total doses starting the same day a score of 2.5 was recorded. Animals randomized to Compound 2 were dosed with 3 μg/mouse SC QD for 14 total doses starting on the same day a score of 2.5 was recorded.
Overall survival: Death due to the disease was monitored in the early sustained use cohort as well as the escalation cohort. Death by disease (clinical score of 5) was recorded as an event “1,” death due to ulceration or for ex vivo analysis was recorded as “0.” Animals surviving until the end of the study were recorded “0” on day 27. Survival analysis was done in GraphPad Prism 9.

[3] = tested on: MOG35-55-induced murine EAE model; assay: Induction/maintenance treatment paradigm in MOG35-55-induced murine EAE model (Example 9); format: in vivo, mice
Description: Compound 2, natalizumab and DMF were prepared as described in Example 8. Table 5 (see Example 4) details the expected clinical symptoms and scoring criteria used in this study.
This study was designed to evaluate the therapeutic effects of Compound 2 versus natalizumab in a treatment induction/maintenance paradigm (induction cohort), and Compound 2 versus DMF after natalizumab (maintenance cohort). In the induction cohorts, animals were randomized 2:1:1 natalizumab:Compound 2:control when they reached a score of 2.5, as per FIG. 6A. Animals in the natalizumab cohort were given 100 μg natalizumab/mouse every 3 days for 3 doses before being randomized to the maintenance cohort. Animals randomized into the maintenance cohort after natalizumab received maintenance doses of DMF or Compound 2 (1:1 randomization), as per their group assignment for 14 days. Animals in the Compound 2 induction cohort were dosed with 30 μg Compound 2/mouse SC QD for a maximum of 7 days, or 3 consecutive days of disease score <2.5, at which time they were placed on a maintenance dose of 3 μg/mouse SC QD for 14 days. All animals in all groups were monitored for 14 days after the last dose for disease score and survival.
Disease control (induction therapy): Disease control was defined as maintaining a clinical score of 2.5 or less after randomization. Animals in the different treatment groups were monitored after the 2:1:1 randomization. Clinical scores were recorded daily for all animals and plotted over time. A score of >2.5 was recorded as an event and analyzed by survival analysis in GraphPad Prism 9. Animals not reaching a clinical score of 2.5 by the end of the induction period (day 7) were assigned a score of zero for the survival analysis.
Survival (induction therapy): Death due to disease (clinical score 5) during the treatment induction period was recorded as an event “1”, animals surviving until the end of the induction period, day 7 after randomization, were censored on day 7 for the purposes of survival analysis.
Disease control (maintenance therapy): At the end of the induction period with natalizumab, animals were randomized 1:1 to the DMF maintenance group or Compound 2 maintenance group as per FIG. 6A. Animals were dosed for 14 days, and clinical scores were monitored daily.
Survival (maintenance therapy): Death by disease (clinical score of 5) was recorded as an event “1”, death due to ulceration or ex vivo analysis was recorded as “0”. Animals surviving until the end of the study were recorded as “0” on the last day of the study. Survival analysis was done in GraphPad Prism 9.

passive MG model = assay: Passive myasthenia gravis model, adoptive transfer to RAG2−/− mice; format: in vivo; conditions: by day 10, SC daily for ten days
Description: In this passive MG model in B6 mice, donor mice (n=20, aged 6-8 weeks) were immunized with complete Freund's adjuvant (CFA) and nicotinic acetylcholine receptor (AChR) emulsion weekly for four weeks. Seven days after the last immunization, splenocytes were collected, and 10^6 cells/mouse were transferred to RAG2^−/− mice. The recipient mice (n=10/group) were treated one day after adoptive transfer with prednisone (1 μg/mouse) SC daily for ten days after disease onset or Compound 2 3 μg SC daily for ten days after disease onset, or were left untreated. Minimal manifestation of disease was defined as a return to a clinical score of 1 after an exacerbation (score 2 or higher). Time to return to minimal score was logged, and the likelihood of return was plotted for untreated animals, and standard of care (SOC; prednisone)- and Compound 2-treated animals.

[4] = tested on: FoxP3+/CD4+ T-cells in splenocytes from naïve C57BL/6 mice; assay: In vitro dose-response, percent FoxP3+/CD4+ T-cells in murine splenocytes; format: cell-based; conditions: for EC50 / EC90: Mus musculus, T-cell, percent FoxP3+/CD4+ T-cells, 72 hours, 4-parameter log-logistic model fit; for mean FoxP3+/CD4+ T-cells, upper plateau, mean (SEM): high dose; for mean FoxP3+/CD4+ T-cells, upper plateau, mean (SEM) / mean FoxP3+/CD4+ T-cells, lower plateau, mean (SEM): from model fitting; for mean FoxP3+/CD4+ T-cells, lower plateau, mean (SEM): low dose
Description: All animal studies were conducted under IACUC number B2020-91 and in compliance with Tufts University/Tufts Medical Center & Human Nutrition Research Center on Aging. Animals were housed four in a cage and had access to food and water ad libitum. Anti-FoxP3 and anti-CD4 for flow cytometry were obtained from eBioscience. Compounds 1-3 were formulated with 10% DMPC in PBS. PS liposomes were synthesized at a 30:70 PS:lipid molar ratio.
Splenocytes from naïve C57BL/6 mice were stained with CFSE, seeded at 2×10^5 cells/well, and dosed with each compound from 1e^−4 μM to 3.0e^−9 μM using a log 2 dilution scheme. Cells were incubated for 72 hours before phenotyping for FoxP3+/CD4+ T-cells. Flow cytometer analysis was performed to assess changes in percent FoxP3+/CD4+ T-cells as a function of compound and dose. Concentration versus response was fitted to a 4-parameter, log-logistic model using the “dre” package in “R”. Both EC50 and EC90 were obtained by model fitting.
Cells were observed via a microscope at the end of the incubation period. All cells looked healthy and suitable for flow cytometry analysis.
Table 2 summarizes EC50 and EC90 values obtained from the model fitting.

[5] = maintenance after natalizumab induction
[6] = escalation cohort after DMF failure (score 2.5), by day 14 after switching

Compound: N[C@@H](CNC(=O)Cc1ccc(OCc2cccc3ccccc23)cn1)C(=O)O [Compound 8, (S)-2-Amino-3-(2-(5-(naphthalen-1-ylmethoxy)pyridin-2-yl)acetamido)propanoic acid]
mean clinical score, comparison of the two groups [1]: no statistical difference

Compound: COC(=O)/C=C/C(=O)OC [DMF, dimethyl fumarate, reference compound]
disease course in early sustained use cohort ([2]; 14 doses, followed to end of study): progressed at the same rate as untreated control animals, with all animals reaching a clinical score of 5 by end of the study
overall survival, early sustained use cohort ([2]; to day 27): all animals in the DMF-treated group died by day 26
animals that progressed to a score of 2.5 ([2]; treatment from disease onset (score 1), within 7 days of disease onset): All animals (n=30)
mean clinical score of animals randomized to maintenance therapy after natalizumab induction ([3]; at start of maintenance): 2.5 (SD=0.4)
animals that progressed to clinical score 5 (death by disease) [3, 5]: 3 out of 4
last measured score, day 7 after initiation of maintenance [3, 5]: 4.37 (SD=1.2)
mortality rate in maintenance cohort ([3]; maintenance after natalizumab induction, n=4 in each group): 75%

Compound: C[C@]12C=CC(=O)C=C1CC[C@@H]1[C@@H]2C(=O)C[C@@]2(C)[C@H]1CC[C@]2(O)C(=O)CO [prednisone, reference compound]
animals returned to minimal manifestation of disease (score 1) (passive MG model): 46%

EC50 [4]: 2.06 nM
EC90 [4]: 688 nM
Compound: N[C@@H](CNC(=O)Cc1ccc(OCc2ccccc2)cc1)C(=O)O [Compound 1, (S)-2-amino-3-(2-(4-(benzyloxy)phenyl)acetamido)propanoic acid]
mean FoxP3+/CD4+ T-cells, upper plateau, mean (SEM) [4]: 5.18%
mean FoxP3+/CD4+ T-cells, lower plateau, mean (SEM) [4]: 1.47%

EC50 [4]: 3.76 nM
EC90 [4]: 20.4 nM
Compound: N[C@@H](CNC(=O)Cc1ccc(OC(c2ccccc2)c2ccccc2)cc1)C(=O)O [Compound 3, (S)-2-amino-3-(2-(4-(benzhydryloxy)phenyl)acetamido)propanoic acid]
potency relative to PS, as measured by EC50 and EC90 ([4]; EC50 and EC90, respectively): two and one orders of magnitude higher (more potent) than PS
mean FoxP3+/CD4+ T-cells, upper plateau, mean (SEM) [4]: 3.48%
mean FoxP3+/CD4+ T-cells, lower plateau, mean (SEM) [4]: 1.32%

Compound: natalizumab: anti-α4β1 integrin monoclonal antibody approved by FDA for the treatment of relapsing forms of MS [reference compound]
mean clinical score after switching from DMF [2, 6]: 3.6 (SD=1.6)
median clinical score after switching from DMF [2, 6]: 3.75
animals that survived until day 27, escalation cohort ([2]; switched from DMF): 6 out of 9
mice showing clinical score improvement and switched to maintenance before end of induction period ([3]; induction period): 0/18
animals that survived the treatment induction period ([3]; induction period, day 7 after randomization): 11/18
mice that died before completing the induction therapy ([3]; induction therapy): 38.8%
mean clinical score by day 7 of induction ([3]; randomized at score 2.5, Compound 2 30 μg SC): 3.61 (SD=1.17)
animals that progressed to a clinical score >2.5 during induction ([3]; randomized at score 2.5, natalizumab 100 μg/mouse every 3 days, Compound 2 30 μg SC): 12

EC50 [4]: 0.133 nM
EC90 [4]: 0.314 nM
Compound: CCCCCC(=O)O[C@@H](COC(C)=O)CO[PH](=O)OC[C@H](N)C(=O)O (stereo partly shown) [PS, phosphatidylserine, reference compound]
